{"source": "ChEMBL document CHEMBL4334442", "about": "“Effects of Acetylshikonin on the Infection and Replication of Coxsackievirus A16 in Vitro and in Vivo” (J Nat Prod, 2019)", "key": {"[1]": {"test": "Cytotoxicity against human RD cells assessed as reduction in cell viability after 12 hrs by CCK8 assay", "assay_type": "cell-based"}, "Coxsackievirus A16": {"system": "Coxsackievirus A16", "test": "Antiviral activity against Coxsackievirus A16 TA271 infected in human RD cells assessed as inhibition of virus-induced cytopathic effect preincubated with viral suspension for 2 hrs followed by cell addition and measured after 24 hrs by CCK-8 assay", "assay_type": "functional, cell-based"}, "[2]": {"test": "Selectivity index, ratio of CC50 for cytotoxicity against human RD cells to EC50 for antiviral activity against Coxsackievirus A16 TA271 infected in human RD cells", "assay_type": "toxicity, cell-based", "settings": "read-out: Ratio CC50/EC50"}}}
{"molecule": "NC(=O)c1ncn([C@@H]2O[C@H](CO)[C@@H](O)[C@H]2O)n1", "note": "[RIBAVIRIN]", "values": [{"measurement": "CC50 at 12 h", "setting": "[1]", "result": 1480, "unit": "µM"}, {"measurement": "Activity", "setting": "Coxsackievirus A16", "result": "Dose-dependent effect"}, {"measurement": "EC50", "setting": "Coxsackievirus A16; Enterovirus A", "result": 144, "unit": "µM"}, {"measurement": "selectivity ratio", "setting": "[2]", "result": 10.3}]}
